A short description of the data set: Solubility in test solutions at different pHs and water. It counts as physicochemical. The conditions noted are these: 37° C. How it is done:
Test substances: the compound of formula (I) was prepared by example 1 of the present invention, the crystal form I was prepared by example 2 of the present invention, the crystal form II was prepared by example 16 of the present invention, the crystal form III was prepared by example 20 of the present invention, the crystal form IV was prepared by example 24 of the present invention, the crystal form V was prepared by example 25 of the present invention, the crystal form VI was prepared by example 27 of the present invention, and the crystal form VII was prepared by example 31 of the present invention.
Preparation of Buffered Salt Solutions at Different pHs:
hydrochloric acid solution at pH 1.0:9 ml of hydrochloric acid was pipetted, and water was added for dilution to 1000 ml; the mixture was mixed homogeneously to obtain a hydrochloric acid solution at pH 1.03. Phosphate buffered solution at pH 4.5:1.56 g of sodium dihydrogen phosphate dihydrate was weighed, and 200 ml of water was added to obtain a phosphate buffered solution at pH 4.50. Phosphate buffered solution at pH 6.8:1.56 g of sodium dihydrogen phosphate dihydrate was weighed, and 200 ml of water was added; and the mixture was adjusted to pH 6.80 with 1 mol/L sodium hydroxide solution.
preparation of buffered solutions at different pHs (samples for determining solubility):
50 mg of each test substance was weighed, and 5 ml of the hydrochloric acid solution (pH 1.0) was added; and the mixture was mixed homogeneously with shaking. About 2.5 mg of each test substance was weighed, and 5 ml of the phosphate buffered solution (pH 4.5), 5 ml of the phosphate buffered solution (pH 6.8), and 5 ml of ultrapure water were added, respectively; the mixture was mixed homogeneously with shaking, and then placed in a 37° C. water bath shaker for shaking; the samples were collected at 24 hours and subjected to centrifugation; and the supernatant was taken and directly injected (if the solubility was high, the supernatant was diluted with a 0.1 mol/L hydrochloric acid solution to an appropriate multiple and then injected).
The solubility of the samples was quantitatively calculated according to the single-point external standard method.

Turning to `CCc1cc2c(N3CCC(C)(OC)CC3)c(C#N)c(=O)[nH]c2cn1` [Crystal form I, 6-ethyl-4-(4-methoxy-4-methylpiperidin-1-yl)-2-oxo-1,2-dihydro-1,7-diazanaphthal ene-3-carbonitrile], the 24-hour solubility is 110 µg/mL (Water), 8600 µg/mL (pH 1.0 hydrochloric acid solution), 130 µg/mL (pH 4.5 phosphate buffered solution) and 110 µg/mL (pH 6.8 phosphate buffered solution).

These data come from patent US12234233B2, “Crystal form of phosphodiesterase inhibitor, preparation method therefor and use thereof” (TRANSTHERA SCIENCES (NANJING), INC., priority 2019, dated 2025).
